Data on one molecule can be found in publication PMC9241945 (Microbiology Spectrum, 2022).

The target of this experiment is T1, CTP synthase PyrG (Staphylococcus aureus, UniProt A6QIX1).
T1 construct: pyrG from S. aureus Newman in pET-28a, purified on Ni-NTA
Briefly: intrinsic fluorescence quenching titration. Type of experiment: binding.

T1 sequence (A6QIX1 whole entry): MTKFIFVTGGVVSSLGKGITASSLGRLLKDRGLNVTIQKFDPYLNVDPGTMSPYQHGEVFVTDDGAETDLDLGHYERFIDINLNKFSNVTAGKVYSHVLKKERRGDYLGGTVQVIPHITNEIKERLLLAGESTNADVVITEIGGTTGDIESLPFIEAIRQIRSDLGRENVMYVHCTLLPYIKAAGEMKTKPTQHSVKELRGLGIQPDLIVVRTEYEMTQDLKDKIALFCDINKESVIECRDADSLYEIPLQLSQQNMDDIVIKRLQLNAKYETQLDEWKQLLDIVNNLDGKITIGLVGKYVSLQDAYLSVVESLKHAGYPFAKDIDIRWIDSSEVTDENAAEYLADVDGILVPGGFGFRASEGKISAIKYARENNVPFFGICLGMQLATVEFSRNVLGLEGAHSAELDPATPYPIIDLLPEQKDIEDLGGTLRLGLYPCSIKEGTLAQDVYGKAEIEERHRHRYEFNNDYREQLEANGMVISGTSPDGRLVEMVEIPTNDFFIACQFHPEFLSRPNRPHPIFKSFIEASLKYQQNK

Consider `Nc1ncnc2c1ncn2[C@@H]1O[C@H](COP(=O)(O)OP(=O)(O)OP(=O)(O)O)[C@@H](O)[C@H]1O` [ATP], for which binding was put at a Kd of 320 µM.

The term Kd denotes the free concentration of one partner at which half of the binding sites on the other are occupied at equilibrium, for simple one-to-one binding. Lower therefore signals a tighter complex.
